Reference: patent publication US20240238242A1, “EGCG buccal tablet and use thereof” (priority 2023, published 2024)
Like-named read-outs stand apart in the source and are kept apart here.

Tested on: Novel enterovirus D68 (EV-D68)
Assay type: cell-based
Details: for CPE test (virus replication in cell wells) / CPE test (virus replication in the cell wells): wells 1-10; for average inactivation efficiency against virus / inactivation efficiency against the virus: EV-D68 virus; for average inactivation efficiency against virus: three experiments; for CPE test per cell well: first experiment; for inactivation efficiency against the virus: single experiment

O=C(O[C@@H]1Cc2c(O)cc(O)cc2O[C@@H]1c1cc(O)c(O)c(O)c1)c1cc(O)c(O)c(O)c1 [EGCG, Epigallocatechin gallate]
−: CPE test (virus replication in cell wells) (1 mM EGCG + virus, 1 minute, dilution factor 10^8, second experiment) | CPE test (virus replication in cell wells) (1 mM EGCG + virus, 1 minute, dilution factor 10^8, third experiment) | CPE test (virus replication in the cell wells) (1 mM EGCG + virus, co-incubated 5 minute, dilution factor 10^7, first experiment) | CPE test (virus replication in the cell wells) (1 mM EGCG + virus, co-incubated 5 minute, dilution factor 10^7, second experiment) | CPE test (virus replication in the cell wells) (1 mM EGCG + virus, co-incubated 5 minute, dilution factor 10^8, first experiment) | CPE test (virus replication in the cell wells) (1 mM EGCG + virus, co-incubated 5 minute, dilution factor 10^8, second experiment) | CPE test per cell well (5 mM EGCG + EV-D68 virus, 1 minute, dilution factor 10^8, wells 1-10) | CPE test (virus replication in cell wells) (5 mM EGCG + EV-D68 virus, co-incubated 5 minute, third experiment, dilution factor 10^7) | CPE test (virus replication in cell wells) (5 mM EGCG + EV-D68 virus, co-incubated 5 minute, third experiment, dilution factor 10^8) | CPE test (virus replication in cell wells) (5 mM EGCG + virus, 1 minute, dilution factor 10^7, second experiment) | CPE test (virus replication in cell wells) (5 mM EGCG + virus, 1 minute, dilution factor 10^8, second experiment) | CPE test (virus replication in cell wells) (5 mM EGCG + virus, 1 minute, dilution factor 10^8, third experiment) | CPE test (virus replication in the cell wells) (5 mM EGCG + virus, co-incubated 5 minute, dilution factor 10^7, first experiment) | CPE test (virus replication in the cell wells) (5 mM EGCG + virus, co-incubated 5 minute, dilution factor 10^7, second experiment) | CPE test (virus replication in the cell wells) (5 mM EGCG + virus, co-incubated 5 minute, dilution factor 10^8, first experiment) | CPE test (virus replication in the cell wells) (5 mM EGCG + virus, co-incubated 5 minute, dilution factor 10^8, second experiment)
− and +: CPE test (virus replication in cell wells) (1 mM EGCG + virus, 1 minute, dilution factor 10^7, second experiment) | CPE test (virus replication in cell wells) (1 mM EGCG + virus, 1 minute, dilution factor 10^7, third experiment) | CPE test per cell well (5 mM EGCG + EV-D68 virus, 1 minute, dilution factor 10^6, wells 1-10) | CPE test per cell well (5 mM EGCG + EV-D68 virus, 1 minute, dilution factor 10^7, wells 1-10) | CPE test (virus replication in cell wells) (5 mM EGCG + EV-D68 virus, co-incubated 5 minute, third experiment, dilution factor 10^6) | CPE test (virus replication in cell wells) (5 mM EGCG + virus, 1 minute, dilution factor 10^7, third experiment) | CPE test (virus replication in the cell wells) (5 mM EGCG + virus, co-incubated 5 minute, dilution factor 10^6, first experiment)
74.88%: inactivation efficiency against the virus (5 mM EGCG, 5 minutes)
66.55%: average inactivation efficiency against virus (5 mM EGCG, 5 minutes)
66.10%: average inactivation efficiency against virus (5 mM EGCG, 1 minute)
+: CPE test (virus replication in cell wells) (1 mM EGCG + virus, 1 minute, dilution factor 10^4, third experiment) | CPE test (virus replication in cell wells) (1 mM EGCG + virus, 1 minute, dilution factor 10^5, second experiment) | CPE test (virus replication in cell wells) (1 mM EGCG + virus, 1 minute, dilution factor 10^5, third experiment) | CPE test (virus replication in the cell wells) (1 mM EGCG + virus, co-incubated 5 minute, dilution factor 10^1, first experiment) | CPE test (virus replication in the cell wells) (1 mM EGCG + virus, co-incubated 5 minute, dilution factor 10^1, second experiment) | CPE test (virus replication in the cell wells) (1 mM EGCG + virus, co-incubated 5 minute, dilution factor 10^2, first experiment) | CPE test (virus replication in the cell wells) (1 mM EGCG + virus, co-incubated 5 minute, dilution factor 10^2, second experiment) | CPE test (virus replication in the cell wells) (1 mM EGCG + virus, co-incubated 5 minute, dilution factor 10^3, first experiment) | CPE test (virus replication in the cell wells) (1 mM EGCG + virus, co-incubated 5 minute, dilution factor 10^3, second experiment) | CPE test (virus replication in the cell wells) (1 mM EGCG + virus, co-incubated 5 minute, dilution factor 10^4, first experiment) | CPE test (virus replication in the cell wells) (1 mM EGCG + virus, co-incubated 5 minute, dilution factor 10^4, second experiment) | CPE test (virus replication in the cell wells) (1 mM EGCG + virus, co-incubated 5 minute, dilution factor 10^5, first experiment) | CPE test (virus replication in the cell wells) (1 mM EGCG + virus, co-incubated 5 minute, dilution factor 10^5, second experiment) | CPE test per cell well (5 mM EGCG + EV-D68 virus, 1 minute, dilution factor 10^2, wells 1-10) | CPE test per cell well (5 mM EGCG + EV-D68 virus, 1 minute, dilution factor 10^3, wells 1-10) | CPE test per cell well (5 mM EGCG + EV-D68 virus, 1 minute, dilution factor 10^4, wells 1-10) | CPE test per cell well (5 mM EGCG + EV-D68 virus, 1 minute, dilution factor 10^5, wells 1-10) | CPE test (virus replication in cell wells) (5 mM EGCG + EV-D68 virus, co-incubated 5 minute, third experiment, dilution factor 10^2) | CPE test (virus replication in cell wells) (5 mM EGCG + EV-D68 virus, co-incubated 5 minute, third experiment, dilution factor 10^3) | CPE test (virus replication in cell wells) (5 mM EGCG + EV-D68 virus, co-incubated 5 minute, third experiment, dilution factor 10^4) | CPE test (virus replication in cell wells) (5 mM EGCG + EV-D68 virus, co-incubated 5 minute, third experiment, dilution factor 10^5) | CPE test (virus replication in cell wells) (5 mM EGCG + virus, 1 minute, dilution factor 10^1, third experiment) | CPE test (virus replication in cell wells) (5 mM EGCG + virus, 1 minute, dilution factor 10^2, second experiment) | CPE test (virus replication in cell wells) (5 mM EGCG + virus, 1 minute, dilution factor 10^2, third experiment) | CPE test (virus replication in cell wells) (5 mM EGCG + virus, 1 minute, dilution factor 10^3, second experiment) | CPE test (virus replication in cell wells) (5 mM EGCG + virus, 1 minute, dilution factor 10^3, third experiment) | CPE test (virus replication in cell wells) (5 mM EGCG + virus, 1 minute, dilution factor 10^4, second experiment) | CPE test (virus replication in cell wells) (5 mM EGCG + virus, 1 minute, dilution factor 10^4, third experiment) | CPE test (virus replication in cell wells) (5 mM EGCG + virus, 1 minute, dilution factor 10^5, second experiment) | CPE test (virus replication in cell wells) (5 mM EGCG + virus, 1 minute, dilution factor 10^5, third experiment) | CPE test (virus replication in the cell wells) (5 mM EGCG + virus, co-incubated 5 minute, dilution factor 10^2, first experiment) | CPE test (virus replication in the cell wells) (5 mM EGCG + virus, co-incubated 5 minute, dilution factor 10^2, second experiment) | CPE test (virus replication in the cell wells) (5 mM EGCG + virus, co-incubated 5 minute, dilution factor 10^3, first experiment) | CPE test (virus replication in the cell wells) (5 mM EGCG + virus, co-incubated 5 minute, dilution factor 10^3, second experiment) | CPE test (virus replication in the cell wells) (5 mM EGCG + virus, co-incubated 5 minute, dilution factor 10^4, first experiment) | CPE test (virus replication in the cell wells) (5 mM EGCG + virus, co-incubated 5 minute, dilution factor 10^4, second experiment) | CPE test (virus replication in the cell wells) (5 mM EGCG + virus, co-incubated 5 minute, dilution factor 10^5, first experiment) | CPE test (virus replication in the cell wells) (5 mM EGCG + virus, co-incubated 5 minute, dilution factor 10^5, second experiment)
35.78%: average inactivation efficiency against virus (1 mM EGCG, 5 minutes)
41.23%: average inactivation efficiency against virus (1 mM EGCG, 1 minute)
80.05%: inactivation efficiency against the virus (5 mM EGCG, 1 minute)
+ and −: CPE test (virus replication in cell wells) (1 mM EGCG + virus, 1 minute, dilution factor 10^6, second experiment) | CPE test (virus replication in cell wells) (1 mM EGCG + virus, 1 minute, dilution factor 10^6, third experiment) | CPE test (virus replication in the cell wells) (1 mM EGCG + virus, co-incubated 5 minute, dilution factor 10^6, first experiment) | CPE test (virus replication in the cell wells) (1 mM EGCG + virus, co-incubated 5 minute, dilution factor 10^6, second experiment) | CPE test (virus replication in cell wells) (5 mM EGCG + virus, 1 minute, dilution factor 10^6, second experiment) | CPE test (virus replication in cell wells) (5 mM EGCG + virus, 1 minute, dilution factor 10^6, third experiment) | CPE test (virus replication in the cell wells) (5 mM EGCG + virus, co-incubated 5 minute, dilution factor 10^6, second experiment)
